# Source: patent publication US20110224250A1, “ISOQUINOLINE DERIVATIVE, AND PDE INHIBITOR COMPRISING SAME AS ACTIVE INGREDIENT” (priority 2008, published 2011)
# Key:
# PDE3A catalytic zone = target: T1, PDE3A catalytic zone (Homo sapiens, UniProt Q14432); experiment: Phosphodiesterase-inhibitory activity, PDE3; type: biochemical; settings: human-derived recombinant PDE protein, [3H]-cAMP, 30° C. for 20 minutes; read-out: IC50 (μmol/L) PDE3
# T1 construct: Regarding the cDNAs of the PDE3A catalytic zone; made in house; host or cells: Sf9 insect cells (baculovirus, Bac-to-Bac / Gateway)
# T1 sequence (Q14432 674-1093 limits assumed): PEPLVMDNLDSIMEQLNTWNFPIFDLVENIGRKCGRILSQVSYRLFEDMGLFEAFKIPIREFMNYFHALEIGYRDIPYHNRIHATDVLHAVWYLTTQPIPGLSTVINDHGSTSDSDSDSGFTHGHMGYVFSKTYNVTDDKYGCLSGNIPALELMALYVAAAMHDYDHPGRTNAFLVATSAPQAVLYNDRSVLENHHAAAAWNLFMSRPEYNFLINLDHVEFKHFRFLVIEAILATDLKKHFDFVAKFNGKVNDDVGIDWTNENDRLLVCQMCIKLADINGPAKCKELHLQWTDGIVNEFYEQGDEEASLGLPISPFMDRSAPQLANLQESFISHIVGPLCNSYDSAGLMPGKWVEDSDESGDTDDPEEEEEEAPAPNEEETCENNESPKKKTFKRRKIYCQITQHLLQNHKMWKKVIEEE
# PDE4Bcat = target: T2, PDE4Bcat (Homo sapiens, UniProt Q07343); experiment: Phosphodiesterase-inhibitory activity, PDE4; type: biochemical; settings: human-derived recombinant PDE protein, [3H]-cAMP, 30° C. for 20 minutes; read-out: IC50 (μmol/L) PDE4
# T2 construct: made in house; host or cells: Sf9 insect cells (baculovirus, Bac-to-Bac / Gateway)
# T2 sequence (Q07343 330-659 limits assumed): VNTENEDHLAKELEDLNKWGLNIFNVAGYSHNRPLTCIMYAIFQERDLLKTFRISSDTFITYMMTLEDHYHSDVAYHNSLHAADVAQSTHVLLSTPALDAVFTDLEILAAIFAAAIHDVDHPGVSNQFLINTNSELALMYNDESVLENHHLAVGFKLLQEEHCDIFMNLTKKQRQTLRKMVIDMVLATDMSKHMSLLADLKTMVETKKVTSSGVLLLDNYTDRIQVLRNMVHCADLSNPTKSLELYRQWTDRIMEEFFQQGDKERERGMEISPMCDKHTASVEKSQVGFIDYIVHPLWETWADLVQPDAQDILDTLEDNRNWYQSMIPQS
IC50 (PDE3A catalytic zone) [µmol/L],IC50 (PDE4Bcat) [µmol/L],Compound
≥ 100,< 0.01,"COc1ccc(-c2ccc3cnccc3c2)c2cc(C(F)(F)F)nn12 [Example 47, 6-(7-Methoxy-2-trifluoromethylpyrazolo[1,5-a]pyridin-4-yl)isoquinoline]"
1 to 100,< 0.01,"COc1ccc(-c2ccc3cncc(Cl)c3c2)c2cc(C(F)(F)F)nn12 [Example 49, 4-Chloro-6-(7-methoxy-2-trifluoromethylpyrazolo[1,5-a]pyridin-4-yl)isoquinoline]"
≥ 100,< 0.01,"COc1ccc(-c2ccc3cnccc3c2)c2c(Cl)c(C(F)(F)F)nn12 [Example 51, 6-(3-Chloro-7-methoxy-2-trifluoromethylpyrazolo[1,5-a]pyridin-4-yl)isoquinoline]"
1 to 100,< 0.01,"COc1ccc(-c2ccc3c[n+]([O-])ccc3c2)c2cc(C(F)(F)F)nn12 [Example 48, 6-(7-Methoxy-2-trifluoromethylpyrazolo[1,5-a]pyridin-4-yl)isoquinoline 2-oxide]"
1 to 100,< 0.01,"CCc1cc2c(-c3ccc4cnccc4c3)ccc(OC)n2n1 [Example 54, 6-(2-Ethyl-7-methoxypyrazolo[1,5-a]pyridin-4-yl)isoquinoline]"
1 to 100,< 0.01,"COc1ccc(-c2ccc3cnccc3c2)c2cc(C3CC3)nn12 [Example 53, 6-(2-Cyclopropyl-7-methoxypyrazolo[1,5-a]pyridin-4-yl)isoquinoline]"
1 to 100,< 0.01,"COc1ccc(-c2ccc3cnccc3c2)c2cccnc12 [Example 59, 5-(Isoquinolin-6-yl)-8-methoxyquinoline]"
≥ 100,< 0.01,"CNc1ccc(-c2ccc3cnccc3c2)c2cc(C(F)(F)F)nn12 [Example 55, 4-(Isoquinolin-6-yl)-N-methyl-2-trifluoromethylpyrazolo[1,5-a]pyridine-7-amine]"
≥ 100,< 0.01,"CNc1ccc(-c2ccc3cnccc3c2)c2c(Cl)c(C(F)(F)F)nn12 [Example 56, 3-Chloro-4-(isoquinolin-6-yl)-N-methyl-2-trifluoromethylpyrazolo[1,5-a]pyridine-7-amine]"
≥ 100,< 0.01,"COc1ccc(-c2ccc3cnccc3c2)n2c(Cl)c(C(F)(F)F)nc12 [Example 57, 6-(3-Chloro-8-methoxy-2-trifluoromethylimidazo[1,2-a]pyridin-5-yl)isoquinoline]"
1 to 100,< 0.01,"COc1ccc(-c2ccc3cnccc3c2Cl)c2cc(C(F)(F)F)nn12 [Example 50, 5-Chloro-6-(7-methoxy-2-trifluoromethylpyrazolo[1,5-a]pyridin-4-yl)isoquinoline]"
≥ 100,< 0.01,"COc1ccc(-c2ccc3cncc(Cl)c3c2)c2c(Cl)c(C(F)(F)F)nn12 [Example 52, 4-Chloro-6-(3-chloro-7-methoxy-2-trifluoromethylpyrazolo[1,5-a]pyridin-4-yl)isoquinoline]"
≥ 100,< 0.01,"CNc1ccc(-c2ccc3cnccc3c2)n2c(Cl)c(C(F)(F)F)nc12 [Example 58, 3-Chloro-5-(isoquinolin-6-yl)-N-methyl-2-trifluoromethylimidazo[1,2a]pyridine-8-amine]"
